Data published in US11690813B2, “Aminothiol reduction of ischemia-reperfusion-induced cell death” (OBVIA PHARMACEUTICALS LTD, priority 2018, dated 2023).
“And” between values parts separate entries of the source, which are not always exact repeats. Equal entries are not always repeated. Where two headings read alike, the source gives them in different places.

Experiments:
irradiated skin = assay type: in vivo, rat
[1] = in vivo
[2] = rat, in vivo
[3] = humans; cited from earlier work
pUC19 plasmid DNA [4] = test: x-irradiation ROS-induced nicking of pUC19 plasmid DNA; assay type: biochemical
pUC19 plasmid DNA [5] = assay type: biochemical
[6] = test system: serum blood urea nitrogen (BUN); conditions: mouse, in vivo, ip
cardiac muscle = conditions: mouse, in vivo, ip
[7] = test system: primary neonate cardiac myocytes; assay type: cell-based, mice
human blood lymphocytes = assay type: cell-based
[8] = parameters: species or system mice; conditions: mouse, in vivo
[9] = test system: Caspase 3 and 7 activity in kidney homogenate supernates; conditions: mouse, in vivo, ip
[10] = mouse, in vivo
[11] = mouse, in vivo; remark: listed apart in the source
physchem = conditions: buffer, pH 7.2
[12] = rats; cited from earlier work
[13] = added 15 min before 90 Gy x-irradiation over 30 min

Question: Which “Ionizing Radiation-ROS-Induced Dermatitis (% Clear Skin)” value (irradiated skin; Topical 100 mM, day 13) does the source give for `NCCCNCCSP(=O)(O)O` [Amifostine, amifostine] here?
Answer: Its value is 0 % Clear Skin.

Question: And the “retching and emesis responses” value [1]?
Answer: The value was “significant bouts of both retching and emesis”.

Question: What about the “blood pressure response to challenge dose of IP epinephrine after drug” value [2] of the same compound?
Answer: The value was “no discernible effect upon blood pressure”.

Question: And the “effect on blood pressure” value ([2]; ip)?
Answer: The value was “immediate and irreversible drop in blood pressure”.

Question: What about the “ocular toxicity associated with chronic hypotension” value ([2]; ip) of the same compound?
Answer: Its value is “discernible ocular phenotype/toxicity”.

Question: And the hypotension/fainting side effects [3]?
Answer: Its hypotension/fainting side effects is “hypotension/fainting side effects”.

Question: And the nausea/emesis side effects [3]?
Answer: The nausea/emesis side effects was “severe nausea/emesis side effects”.

Question: For `CNCC(CS)CNC` [PrC-210], which “suppression of ROS-induced damage to plasmid DNA” value (pUC19 plasmid DNA [4]) is on record?
Answer: The value was “dose-dependent suppression”.

Question: What about the “suppression of pUC19 DNA damage” value (pUC19 plasmid DNA [4]) of the same compound?
Answer: Its value is 90%.

Question: What about the “suppression of .OH-induced ROS DNA damage” value (pUC19 plasmid DNA [5]) of the same compound?
Answer: The value was “complete suppression”.

Question: What about the “reduction in serum blood urea nitrogen (BUN) level” value [6] of the same compound?
Answer: The value was “like reduction”.

Question: What about the “reduction in percentage of total cardiac muscle stained as dead-tissue” value (cardiac muscle) of the same compound?
Answer: Its value is 36%.

Question: What about the “H2O2-induced cell death eliminated” value [7] of the same compound?
Answer: Its value is ~80%.

Question: What about the “suppression of γ-H2AX foci formation” value (human blood lymphocytes) of the same compound?
Answer: The value was “highly significant”.

Question: What about the “Ionizing Radiation-ROS-Induced Dermatitis (% Clear Skin)” value (irradiated skin; rat, in vivo) of the same compound?
Answer: The value was 100 % Clear Skin.

Question: And the “Ionizing Radiation-ROS-Induced Dermatitis (% Clear Skin)” value (irradiated skin; rat, in vivo, ip)?
Answer: The value was 100 % Clear Skin.

Question: And the “suppression of radiation-induced death” value [8]?
Answer: Its value is “complete suppression”.

Question: What about the “survival against otherwise 100% lethal dose of radiation” value [8] of the same compound?
Answer: Its value is 100%.

Question: What about the “reduction in level of kidney caspase” value [9] of the same compound?
Answer: Its value is 84%.

Question: And the “reduction in level of kidney caspase at 0.24 MTD” value [9]?
Answer: The value was “highly significant reductions”.

Question: What about the “reduction in level of kidney caspase over dose range” value [9] of the same compound?
Answer: The value was “dose-dependent reduction”.

Question: And the “retching and emesis responses” value ([1]; ferret)?
Answer: Its value is “none of the 10 ferrets”.

Question: What about the “blood pressure response to challenge dose of IP epinephrine after drug” value [2] of the same compound?
Answer: The value was “robust increase in blood pressure”.

Question: And the “effect on blood pressure” value ([2]; ip)?
Answer: Its value is “no reduction in blood pressure”.

Question: And the “PrC-210 thiol blood concentration” value [10]?
Answer: The value was 3 mM.

Question: And the “plasma/blood concentrations of PrC-210 thiol associated with protection” value [10]?
Answer: Its value is 1 to 3 mM.

Question: What about the “half-life of the thiol” value (buffer, pH 7.2) of the same compound?
Answer: Its value is 3.5 h.

Question: What about the “conversion to disulfide form” value (pH 6) of the same compound?
Answer: The value was “no discernible conversion”.

Question: What about the “IP maximum tolerated dose (MTD)” value [11] of the same compound?
Answer: The value was 504 ug/gm body weight.

Question: What about the half-life (physchem) of the same compound?
Answer: The half-life was 3.5 h.

Question: Which “Ionizing Radiation-ROS-Induced Dermatitis (% Clear Skin)” value (irradiated skin; rat, in vivo) does the source give for `NCC(CN)CS` [PrC-211] here?
Answer: Its value is 55 % Clear Skin and 100 % Clear Skin.

Question: What about the “Ionizing Radiation-ROS-Induced Dermatitis (% Clear Skin)” value (irradiated skin; rat, in vivo, ip) of the same compound?
Answer: Its value is 87 % Clear Skin.

Question: And the “reduction in level of kidney caspase at 0.24 MTD” value [9]?
Answer: Its value is “highly significant reductions”.

Question: What about the “IP maximum tolerated dose (MTD)” value [11] of the same compound?
Answer: The value was 500 ug/gm body weight.

Question: What does the source list for `NCCCNCCS` [WR-1065, reference compound]?
Answer: suppression of ROS-induced damage to plasmid DNA (pUC19 plasmid DNA [4]; [13]): dose-dependent suppression; hypotension side effects [12]: hypotension side effects

Question: For `NCCS` [cysteamine, reference compound], which “suppression of ROS-induced damage to plasmid DNA” value (pUC19 plasmid DNA [4]; [13]) is on record?
Answer: Its value is “dose-dependent suppression”.

Question: With `CN(C)C(=O)C(CCN1CCC(O)(c2ccc(Cl)cc2)CC1)(c1ccccc1)c1ccccc1` [loperamide] as the compound, how does the “retching and emesis responses” value [1] read?
Answer: Its value is “strong retch and emesis responses”.
